Data reported in PubChem BioAssay AID1259407 (Chemical Carcinogenesis Research Information System (CCRIS), 2018).
The source made the active and inactive calls. No rule for the calls is given here.

Test system: CCRIS mutagenicity, Ames/micronucleus/aberration tests
Assay: CCRIS mutagenicity studies
[1] = Test System: AMES SALMONELLA TYPHIMURIUM, Strain/Indicator: TA98, Metabolic Activation: NONE, Method: STANDARD PLATE
[2] = Test System: AMES SALMONELLA TYPHIMURIUM, Strain/Indicator: TA100, Metabolic Activation: NONE, Method: STANDARD PLATE
[3] = Test System: AMES SALMONELLA TYPHIMURIUM, Strain/Indicator: TA98, Metabolic Activation: NONE, Method: PREINCUBATION
[4] = Test System: AMES SALMONELLA TYPHIMURIUM, Strain/Indicator: TA98, Metabolic Activation: RAT, LIVER, S-9, AROCLOR 1254, Method: PREINCUBATION
[5] = Test System: AMES SALMONELLA TYPHIMURIUM, Strain/Indicator: TA100, Metabolic Activation: NONE, Method: PREINCUBATION
[6] = Test System: AMES SALMONELLA TYPHIMURIUM, Strain/Indicator: TA100, Metabolic Activation: RAT, LIVER, S-9, PHENOBARBITAL, Method: PREINCUBATION
[7] = Test System: AMES SALMONELLA TYPHIMURIUM, Strain/Indicator: TA98, Metabolic Activation: RAT, LIVER, S-9, AROCLOR 1254, Method: STANDARD PLATE
[8] = Test System: AMES SALMONELLA TYPHIMURIUM, Strain/Indicator: TA100, Metabolic Activation: RAT, LIVER, S-9, AROCLOR 1254, Method: STANDARD PLATE

Q: Which mutagenic call (Test System: AMES SALMONELLA TYPHIMURIUM, Strain/Indicator: TA98(1,8-DNP6), Metabolic Activation: NONE, Method: STANDARD PLATE) does the source give for `CN(C)CCCNc1c2ccccc2nc2ccc([N+](=O)[O-])cc12` here?
A: active; positive

Q: And the mutagenic call (Test System: AMES SALMONELLA TYPHIMURIUM, Strain/Indicator: TA98(1,8-DNP6), Metabolic Activation: RAT, LIVER, S-9, Method: STANDARD PLATE)?
A: active; positive

Q: And the mutagenic call (Test System: AMES SALMONELLA TYPHIMURIUM, Strain/Indicator: TA98(NR), Metabolic Activation: NONE, Method: STANDARD PLATE)?
A: active; positive

Q: What about the mutagenic call (Test System: AMES SALMONELLA TYPHIMURIUM, Strain/Indicator: TA98(NR), Metabolic Activation: RAT, LIVER, S-9, Method: STANDARD PLATE) of the same molecule?
A: active; positive

Q: And the mutagenic call [1]?
A: active; positive

Q: And the mutagenic call (Test System: AMES SALMONELLA TYPHIMURIUM, Strain/Indicator: TA98, Metabolic Activation: RAT, LIVER, S-9, Method: STANDARD PLATE)?
A: active; positive

Q: And the mutagenic call [2]?
A: active; positive

Q: What about the mutagenic call (Test System: AMES SALMONELLA TYPHIMURIUM, Strain/Indicator: TA1535, Metabolic Activation: NONE, Method: STANDARD PLATE) of the same molecule?
A: active; positive

Q: What about the mutagenic call (Test System: AMES SALMONELLA TYPHIMURIUM, Strain/Indicator: TA1537, Metabolic Activation: NONE, Method: STANDARD PLATE) of the same molecule?
A: active; positive

Q: What about the mutagenic call (Test System: AMES SALMONELLA TYPHIMURIUM, Strain/Indicator: TA1537 PKM101, Metabolic Activation: NONE, Method: STANDARD PLATE) of the same molecule?
A: active; positive

Q: What about the mutagenic call (Test System: AMES SALMONELLA TYPHIMURIUM, Strain/Indicator: TA1538, Metabolic Activation: NONE, Method: STANDARD PLATE) of the same molecule?
A: active; positive

Q: And the mutagenic call (Test System: CHINESE HAMSTER V-79, Strain/Indicator: V-79/6-THIOGUANINE, Metabolic Activation: NONE, Method: STANDARD PLATE)?
A: inactive; negative

Q: What about the mutagenic call (Test System: CHINESE HAMSTER V-79, Strain/Indicator: V-79/OUABAIN, Metabolic Activation: NONE, Method: STANDARD PLATE) of the same molecule?
A: inactive; negative

Q: What about the mutagenic call (Test System: Escherichia coli, Strain/Indicator: CC107 (G6 to G7 frameshifts), Metabolic Activation: None, Method: Modified preincubation) of the same molecule?
A: active; positive

Q: And the mutagenic call (Test System: Escherichia coli, Strain/Indicator: CC108 (G6 to G5 frameshifts), Metabolic Activation: None, Method: Modified preincubation)?
A: active; positive

Q: What about the mutagenic call (Test System: Escherichia coli, Strain/Indicator: CC109 (CG5 to CG4 frameshifts), Metabolic Activation: None, Method: Modified preincubation) of the same molecule?
A: active; positive

Q: What about the mutagenic call (Test System: Escherichia coli, Strain/Indicator: CC111 (A7 to A6 frameshifts), Metabolic Activation: None, Method: Modified preincubation) of the same molecule?
A: active; positive

Q: Which mutagenic call (End Point: IN VITRO CHROMOSOMAL ABERRATIONS, Test System: V79 CELLS, Metabolic Activation: NONE) does the source give for `Oc1cccc(O)c1O` here?
A: active; positive; active at higher levels at all ph values

Q: What about the mutagenic call (Test System: AMES SALMONELLA TYPHIMURIUM, Strain/Indicator: TA97, Metabolic Activation: NONE, Method: PREINCUBATION) of the same molecule?
A: active; positive

Q: What about the mutagenic call (Test System: AMES SALMONELLA TYPHIMURIUM, Strain/Indicator: TA97, Metabolic Activation: RAT, LIVER, S-9, PHENOBARBITAL, Method: PREINCUBATION) of the same molecule?
A: active; positive

Q: What about the mutagenic call (Test System: AMES SALMONELLA TYPHIMURIUM, Strain/Indicator: TA98, Metabolic Activation: NONE) of the same molecule?
A: inactive; negative

Q: And the mutagenic call [3]?
A: inactive; negative

Q: And the mutagenic call [1]?
A: inactive; negative

Q: And the mutagenic call [4]?
A: inactive; negative

Q: What about the mutagenic call (Test System: AMES SALMONELLA TYPHIMURIUM, Strain/Indicator: TA98, Metabolic Activation: RAT, LIVER, S-9, PHENOBARBITAL, Method: PREINCUBATION) of the same molecule?
A: active; positive

Q: And the mutagenic call (Test System: AMES SALMONELLA TYPHIMURIUM, Strain/Indicator: TA98, Metabolic Activation: S-9)?
A: inactive; negative

Q: And the mutagenic call (Test System: AMES SALMONELLA TYPHIMURIUM, Strain/Indicator: TA98, Metabolic Activation: S-9, Method: STANDARD PLATE)?
A: active; positive

Q: What about the mutagenic call [5] of the same molecule?
A: active; positive

Q: And the mutagenic call [2]?
A: inactive; negative

Q: And the mutagenic call [6]?
A: active; positive

Q: What about the mutagenic call (Test System: AMES SALMONELLA TYPHIMURIUM, Strain/Indicator: TA100, Metabolic Activation: S-9, Method: STANDARD PLATE) of the same molecule?
A: active; positive

Q: What about the mutagenic call (Test System: AMES SALMONELLA TYPHIMURIUM, Strain/Indicator: TA102, Metabolic Activation: NONE, Method: STANDARD PLATE) of the same molecule?
A: active; positive

Q: And the mutagenic call (Test System: AMES SALMONELLA TYPHIMURIUM, Strain/Indicator: TA102, Metabolic Activation: RAT, LIVER, S-9, AROCLOR 1254, Method: PREINCUBATION)?
A: inactive; negative

Q: And the mutagenic call (Test System: AMES SALMONELLA TYPHIMURIUM, Strain/Indicator: TA1535, Metabolic Activation: NONE, Method: PREINCUBATION)?
A: inactive; negative

Q: What about the mutagenic call (Test System: AMES SALMONELLA TYPHIMURIUM, Strain/Indicator: TA1535, Metabolic Activation: RAT, LIVER, S-9, AROCLOR 1254, Method: PREINCUBATION) of the same molecule?
A: inactive; negative

Q: What about the mutagenic call (Test System: AMES SALMONELLA TYPHIMURIUM, Strain/Indicator: TA2638, Metabolic Activation: NONE, Method: STANDARD PLATE) of the same molecule?
A: active; positive

Q: And the mutagenic call (Test System: E. COLI, Strain/Indicator: WP2 (PKM101), Metabolic Activation: NONE, Method: STANDARD PLATE)?
A: active; positive

Q: What about the mutagenic call (Test System: E. COLI, Strain/Indicator: WP2 UVRA (PKM101), Metabolic Activation: NONE, Method: STANDARD PLATE) of the same molecule?
A: active; positive

Q: How did the mutagenic call (Test System: AMES SALMONELLA TYPHIMURIUM, Strain/Indicator: TA100, Metabolic Activation: RAT, LIVER, S-9, KC500 OR PHENOBARBITAL, Method: LIQUID SUSPENSION) turn out when `CCCCCN(CCCCC)N=O` was run?
A: active; positive

Q: What about the mutagenic call (Test System: AMES SALMONELLA TYPHIMURIUM, Strain/Indicator: TA1530, Metabolic Activation: RAT, LIVER, S-9, Method: STANDARD PLATE) of the same molecule?
A: active; positive

Q: What about the mutagenic call (Test System: CHINESE HAMSTER V-79, Strain/Indicator: V-79/8-AZAGUANINE, Metabolic Activation: CELL-MEDIATED, Method: STANDARD PLATE) of the same molecule?
A: active; positive

Q: With `Nc1cc([N+](=O)[O-])cc([N+](=O)[O-])c1` as the molecule, how does the mutagenic call [3] read?
A: active; positive

Q: What about the mutagenic call [1] of the same molecule?
A: active; positive

Q: What about the mutagenic call [7] of the same molecule?
A: active; positive

Q: What about the mutagenic call (Test System: AMES SALMONELLA TYPHIMURIUM, Strain/Indicator: TA98, Metabolic Activation: RAT, LIVER, S-9, KANECHLOR 500, Method: PREINCUBATION) of the same molecule?
A: active; positive

Q: What about the mutagenic call [5] of the same molecule?
A: active; positive

Q: And the mutagenic call [2]?
A: active; positive

Q: What about the mutagenic call [8] of the same molecule?
A: active; positive

Q: What about the mutagenic call (Test System: AMES SALMONELLA TYPHIMURIUM, Strain/Indicator: TA100, Metabolic Activation: RAT, LIVER, S-9, KANECHLOR 500, Method: PREINCUBATION) of the same molecule?
A: active; positive

Q: For `O=c1cc(CO)occ1O`, which mutagenic call (End Point: IN VIVO MICRONUCLEUS, Test System: HEPATOCYTES, Species: RAT, Strain/Sex: FISHER 344 OR SD/MALE, Route: ORAL OR IP) is on record?
A: inactive; negative

Q: And the mutagenic call (End Point: IN VIVO MICRONUCLEUS, Test System: PERIPHERAL BLOOD RETICULOCYTES, Species: RAT, Strain/Sex: FISHER 344 OR SD/MALE, Route: ORAL OR IP)?
A: active; positive

Q: And the mutagenic call (End Point: In vivo micronucleus, Test System: Mononucleated hepatocytes/1000 hepatocytes, Species: Mouse, Strain/Sex: Ddy/Male, Route: Oral)?
A: active; positive (dose related increase, significant only at high dose)

Q: And the mutagenic call (End Point: In vivo micronucleus, Test System: Mononucleated hepatocytes/1000 hepatocytes, Species: Rat, Strain/Sex: F344/Male, Route: Oral)?
A: active; positive (dose related increase, significant only at high dose)

Q: What about the mutagenic call [3] of the same molecule?
A: active; positive

Q: What about the mutagenic call [1] of the same molecule?
A: active; positive

Q: And the mutagenic call [4]?
A: active; positive

Q: What about the mutagenic call [7] of the same molecule?
A: active; positive

Q: What about the mutagenic call [2] of the same molecule?
A: active; positive

Q: What about the mutagenic call (Test System: AMES SALMONELLA TYPHIMURIUM, Strain/Indicator: TA100, Metabolic Activation: RAT, LIVER, MICROSOMES, PHENOBARBITAL, Method: STANDARD PLATE) of the same molecule?
A: active; positive

Q: What about the mutagenic call (Test System: AMES SALMONELLA TYPHIMURIUM, Strain/Indicator: TA100, Metabolic Activation: RAT, LIVER, S-9, AROCLOR 1254, Method: PREINCUBATION) of the same molecule?
A: inactive; negative

Q: And the mutagenic call [8]?
A: active; positive

Q: And the mutagenic call [6]?
A: inactive; negative

Q: What about the mutagenic call (Test System: Ames Salmonella typhimurium, Strain/Indicator: TA100, Metabolic Activation: None, Method: Preincubation) of the same molecule?
A: active; positive

Q: And the mutagenic call (Test System: Ames Salmonella typhimurium, Strain/Indicator: TA100, Metabolic Activation: Rat, Liver, S-9, Phenobarbital and 6-naphthoflavone, Method: Preincubation)?
A: active; positive

Q: `C=C1[C@@H](C)[C@H]2[C@H](Cc3ccccc3)NC(=O)[C@]23OC(=O)/C=C/[C@H](O)CCC[C@@H](C)C/C=C/[C@H]3[C@@H]1O` was tested. Which mutagenic call (End Point: In vivo micronucleus, Test System: Micronucleated, binucleated and multinucleated hepatocytes, Species: Mouse, Strain/Sex: ddY/Male, Route: Intravenous) did it give?
A: active; positive for micronucleated cells when agent administered before and after parti
